# Key:
# corn [1] = test: Test A preemergence; assay type: in vivo, Zea mays
# Outline: (§1)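 Compounds in non-phytotoxic solvent with surfactant applied as soil spray preemergence, or postemergence to plants 2-10 cm at one- to two-leaf stage, in loam/sand. After approximately 10 days in greenhouse, injury rated visually versus untreated controls, 0 (no effect) to 100 (complete control).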
# barnyardgrass [2] = test: Test C flooded paddy test; assay type: in vivo, Echinochloa crus-galli; conditions: Flood, scale 0 to 100 (0 no effect, 100 complete control), 13 to 15 days
# Source text: (§2) At time of treatment, test pots were flooded to 3 cm above the soil surface, treated by application of test compounds directly to the paddy water, and then maintained at that water depth for the duration of the test. Treated plants and controls were maintained in a greenhouse for 13 to 15 days, after which time all species were compared to controls and visually evaluated. […] A dash (-) response means no test result.
# giant foxtail [3] = test: Test A preemergence; assay type: in vivo, Setaria faberii
# Outline: as §1
# velvetleaf [4] = test: Test A postemergence; assay type: in vivo, Abutilon theophrasti
# Outline: as §1
# barnyardgrass [5] = test: Test A preemergence; assay type: in vivo, Echinochloa crus-galli
# Outline: as §1
# velvetleaf [6] = test: Test A preemergence; assay type: in vivo, Abutilon theophrasti
# Outline: as §1
# sedge, umbrella [7] = test: Test C flooded paddy test; assay type: in vivo, Cyperus difformis; conditions: Flood, scale 0 to 100 (0 no effect, 100 complete control), 13 to 15 days
# Source text: as §2
# sedge, umbrella [8] = test: Test B flooded paddy test; assay type: in vivo, Cyperus difformis; conditions: Flood, 250 g ai/ha; 0 to 100 scale where 0 is no effect and 100 is complete control
# Outline: (§3)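 2-leaf stage plants; pots flooded to 3 cm, compound added to paddy water, depth maintained. Greenhouse 13–15 d. Visual rating vs untreated controls, 0 (no effect) to 100 (complete control); dash = no result.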
# corn [9] = test: Test A postemergence; assay type: in vivo, Zea mays
# Outline: as §1
# morningglory = test: Test A postemergence; assay type: in vivo, Ipomoea spp.
# Outline: as §1
# large (Lg) crabgrass [10] = test: Test A preemergence; assay type: in vivo, Digitaria sanguinalis
# Outline: as §1
# ducksalad = test: Test C flooded paddy test; assay type: in vivo, Heteranthera limosa; conditions: Flood, scale 0 to 100 (0 no effect, 100 complete control), 13 to 15 days
# Source text: as §2
# barnyardgrass [11] = test: Test B flooded paddy test; assay type: in vivo, Echinochloa crus-galli; conditions: Flood, 250 g ai/ha; 0 to 100 scale where 0 is no effect and 100 is complete control
# Outline: as §3
# large (Lg) crabgrass [12] = test: Test A postemergence; assay type: in vivo, Digitaria sanguinalis
# Outline: as §1
# wheat [13] = test: Test A postemergence; assay type: in vivo, Triticum aestivum
# Outline: as §1
# barnyardgrass [14] = test: Test A postemergence; assay type: in vivo, Echinochloa crus-galli
# Outline: as §1
# Heteranthera limosa = test: Test B flooded paddy test; assay type: in vivo; conditions: Flood, 250 g ai/ha; 0 to 100 scale where 0 is no effect and 100 is complete control
# Outline: as §3
# wheat [15] = test: Test A preemergence; assay type: in vivo, Triticum aestivum
# Outline: as §1
# rice [16] = test: Test C flooded paddy test; assay type: in vivo, Oryza sativa; conditions: Flood, scale 0 to 100 (0 no effect, 100 complete control), 13 to 15 days
# Source text: as §2
# giant foxtail [17] = test: Test A postemergence; assay type: in vivo, Setaria faberii
# Outline: as §1
# rice [18] = test: Test B flooded paddy test; assay type: in vivo, Oryza sativa; conditions: Flood, 250 g ai/ha; 0 to 100 scale where 0 is no effect and 100 is complete control
# Outline: as §3
# pigweed [19] = test: Test A postemergence; assay type: in vivo, Amaranthus retroflexus
# Outline: as §1
# pigweed [20] = test: Test A preemergence; assay type: in vivo, Amaranthus retroflexus
# Outline: as §1
# [21] = 125 g ai/ha, 0 to 100 scale where 0 is no effect and 100 is complete control
# [22] = 500 g ai/ha, 0 to 100 scale, 0 no effect, 100 complete control, approx. 10 days
# [23] = 500 g ai/ha, 0 to 100 scale, 0 no effect, 100 complete control
smiles,measurement,setting,value
Clc1cnc(Oc2ccccc2-n2cnc(Br)c2)nc1 [Compound 34],"Plant response rating, Corn",corn [1]; [21],0
same,Corn plant response rating,corn [1]; [22],0
same,"Plant response rating, Barnyardgrass",barnyardgrass [2]; 31 g ai/ha,0
same,"Plant response rating, Barnyardgrass",barnyardgrass [2]; 62 g ai/ha,0
same,"Plant response rating, Barnyardgrass",barnyardgrass [2]; 125 g ai/ha,0
same,"Plant response rating, Barnyardgrass",barnyardgrass [2]; 250 g ai/ha,10
same,"Plant response rating, Foxtail, Giant",giant foxtail [3]; [21],30
same,"Foxtail, Giant plant response rating",giant foxtail [3]; [22],100
same,"Plant response rating, Velvetleaf",velvetleaf [4]; [21],80
same,"Plant response rating, Velvetleaf",velvetleaf [4]; [23],100
same,"Plant response rating, Barnyardgrass",barnyardgrass [5]; [21],0
same,Barnyardgrass plant response rating,barnyardgrass [5]; [22],50
same,"Plant response rating, Velvetleaf",velvetleaf [6]; [21],60
same,Velvetleaf plant response rating,velvetleaf [6]; [22],80
same,"Plant response rating, Sedge, Umbrella","sedge, umbrella [7]; 31 g ai/ha",0
same,"Plant response rating, Sedge, Umbrella","sedge, umbrella [7]; 62 g ai/ha",0
same,"Plant response rating, Sedge, Umbrella","sedge, umbrella [7]; 125 g ai/ha",0
same,"Plant response rating, Sedge, Umbrella","sedge, umbrella [7]; 250 g ai/ha",70
same,"Plant response rating, Sedge, Umbrella","sedge, umbrella [8]",90
same,"Plant response rating, Corn",corn [9]; [21],10
same,"Plant response rating, Corn",corn [9]; [23],20
same,"Plant response rating, Morningglory",morningglory; [21],60
same,"Plant response rating, Morningglory",morningglory; [23],80
same,"Plant response rating, Crabgrass, Large",large (Lg) crabgrass [10]; [21],70
same,"Crabgrass, Large plant response rating",large (Lg) crabgrass [10]; [22],90
same,"Plant response rating, Ducksalad",ducksalad; 31 g ai/ha,0
same,"Plant response rating, Ducksalad",ducksalad; 62 g ai/ha,0
same,"Plant response rating, Ducksalad",ducksalad; 125 g ai/ha,20
same,"Plant response rating, Ducksalad",ducksalad; 250 g ai/ha,75
same,"Plant response rating, Barnyardgrass",barnyardgrass [11],20
same,"Plant response rating, Crabgrass, Large",large (Lg) crabgrass [12]; [21],50
same,"Plant response rating, Crabgrass, Large",large (Lg) crabgrass [12]; [23],60
same,"Plant response rating, Wheat",wheat [13]; [21],0
same,"Plant response rating, Wheat",wheat [13]; [23],20
same,"Plant response rating, Barnyardgrass",barnyardgrass [14]; [21],20
same,"Plant response rating, Barnyardgrass",barnyardgrass [14]; [23],50
same,"Plant response rating, Ducksalad",Heteranthera limosa,90
same,"Plant response rating, Wheat",wheat [15]; [21],0
same,Wheat plant response rating,wheat [15]; [22],0
same,"Plant response rating, Rice",rice [16]; 31 g ai/ha,0
same,"Plant response rating, Rice",rice [16]; 62 g ai/ha,0
same,"Plant response rating, Rice",rice [16]; 125 g ai/ha,0
same,"Plant response rating, Rice",rice [16]; 250 g ai/ha,0
same,"Plant response rating, Foxtail, Giant",giant foxtail [17]; [21],30
same,"Plant response rating, Foxtail, Giant",giant foxtail [17]; [23],70
same,"Plant response rating, Rice",rice [18],30
same,"Plant response rating, Pigweed",pigweed [19]; [21],90
same,"Plant response rating, Pigweed",pigweed [19]; [23],100
same,"Plant response rating, Pigweed",pigweed [20]; [21],80
same,Pigweed plant response rating,pigweed [20]; [22],100

# — patent publication US9695155B2, “Herbicidal substituted pyrimidinyloxy benzene compounds” (E. I. DU PONT DE NEMOURS AND COMPANY, priority 2013, dated 2017)
